For this experiment, the target named is T1, Sigma-1 receptor (Sig-1R) (Homo sapiens, UniProt Q99720).
T1 construct: gene SIGMAR1; human Sig-1R-GFP stably expressed in Neuro-2A cell membranes
Put plainly: [3H](+)-pentazocine competition radioligand binding, membranes.

Where two headings read alike, the source gives them in different places.

T1 sequence (Q99720 whole entry): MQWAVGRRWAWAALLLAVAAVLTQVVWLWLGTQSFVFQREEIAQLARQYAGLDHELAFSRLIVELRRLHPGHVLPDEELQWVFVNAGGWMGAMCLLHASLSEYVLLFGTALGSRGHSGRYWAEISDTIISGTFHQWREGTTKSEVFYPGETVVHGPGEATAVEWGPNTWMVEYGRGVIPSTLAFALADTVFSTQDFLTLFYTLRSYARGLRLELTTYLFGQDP

By Ki is commonly meant a measure of affinity in units of concentration, obtained from inhibition or displacement. Consider `CC(=O)OCC[N+](C)(C)C` [acetylcholine], for which the inhibitory constant (Ki) (read-out: Ki) is around 12000 µM.
As for `C[N+](C)(C)CC(=O)O` [betaine], where the note is “read-out: Ki”, the Ki was determined as 1320 µM.
Consider `C[N+](C)(C)CCO` [Choline], for which the affinity, expressed as Ki, was 525 µM.
